Experimental data: patent publication US10131652B2, “Pyrimidinyloxy benzene derivatives as herbicides” (E. I. DU PONT DE NEMOURS AND COMPANY, priority 2014, dated 2018)
Where two headings read alike, the source gives them in different places.

Key:
Assay in all cases: Test D pre-/postemergence plant response
Format in all cases: in vivo
[1] = test system: johnsongrass (Sorghum halepense); settings: Sorghum halepense, pre-emergence, Preemergence
In short: (§1)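 Pre-/post-emergence greenhouse test. Pre: seeded loam+sand, sprayed same day. Post: 1–4 leaf plants (2–18 cm), peat/vermiculite mix. Formulation: non-phytotoxic solvent + surfactant. Scored visually d13–15, 0–100 vs control.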

[2] = test system: large (Lg) crabgrass (Digitaria sanguinalis); settings: Digitaria sanguinalis; for pest or weed control at 16 g/ha: 16 g ai/ha; for pest or weed control at 31 g/ha: 31 g ai/ha; for pest or weed control at 62 g/ha: 62 g ai/ha; for pest or weed control at 125 g/ha: 125 g ai/ha
In short: as §1

[3] = test system: velvetleaf (Abutilon theophrasti); settings: Abutilon theophrasti; for pest or weed control at 16 g/ha: 16 g ai/ha; for pest or weed control at 31 g/ha: 31 g ai/ha; for pest or weed control at 62 g/ha: 62 g ai/ha; for pest or weed control at 125 g/ha: 125 g ai/ha
In short: as §1

[4] = test system: winter wheat (Triticum aestivum); settings: Triticum aestivum; for plant injury at 16 g/ha: 16 g ai/ha; for plant injury at 31 g/ha: 31 g ai/ha; for plant injury at 62 g/ha: 62 g ai/ha; for plant injury at 125 g/ha: 125 g ai/ha
In short: as §1

[5] = test system: oilseed rape (Brassica napus); settings: Brassica napus; for plant injury at 16 g/ha: 16 g ai/ha; for plant injury at 31 g/ha: 31 g ai/ha; for plant injury at 62 g/ha: 62 g ai/ha; for plant injury at 125 g/ha: 125 g ai/ha
In short: as §1

[6] = post-emergence, Postemergence, scale 0 to 100 (0 no effect, 100 complete control), read-out: Crabgrass, Large plant response rating
[7] = post-emergence, Postemergence, scale 0 to 100, 0 no effect, 100 complete control, read-out: Plant response rating, Crabgrass, Large
[8] = pre-emergence, Preemergence, scale 0 to 100 (0 no effect, 100 complete control), read-out: Plant response rating, Crabgrass, Large
[9] = post-emergence, Postemergence, scale 0 to 100 (0 no effect, 100 complete control), read-out: Velvetleaf plant response rating
[10] = post-emergence, Postemergence, scale 0 to 100, 0 no effect, 100 complete control, read-out: Plant response rating, Velvetleaf
[11] = pre-emergence, Preemergence, scale 0 to 100 (0 no effect, 100 complete control), read-out: Plant response rating, Velvetleaf
[12] = post-emergence, Postemergence, scale 0 to 100 (0 no effect, 100 complete control), read-out: Wheat plant response rating
[13] = post-emergence, Postemergence, scale 0 to 100, 0 no effect, 100 complete control, read-out: Plant response rating, Wheat
[14] = pre-emergence, Preemergence, scale 0 to 100 (0 no effect, 100 complete control), read-out: Plant response rating, Wheat
[15] = post-emergence, Postemergence, scale 0 to 100 (0 no effect, 100 complete control), read-out: Oilseed Rape plant response rating
[16] = post-emergence, Postemergence, scale 0 to 100, 0 no effect, 100 complete control, read-out: Plant response rating, Oilseed Rape
[17] = pre-emergence, Preemergence, scale 0 to 100 (0 no effect, 100 complete control), read-out: Plant response rating, Oilseed Rape

Question: For Fc1cccc(Oc2ncc(Cl)cn2)c1-c1cc(C(F)F)on1 [Compound 55, 5-chloro-2-[2-[5-(difluoromethyl)-3-isoxazolyl]-3-fluorophenoxy]pyrimidine], which pest or weed control at 125 g/ha ([1]; 125 g ai/ha, read-out: Plant response rating (scale 0 to 100), Johnsongrass) is on record?
Answer: 100%

Question: What about the pest or weed control at 16 g/ha ([1]; 16 g ai/ha, scale 0 to 100 (0 no effect, 100 complete control), read-out: Plant response rating, Johnsongrass) of the same compound?
Answer: 30%

Question: And the pest or weed control at 31 g/ha ([1]; 31 g ai/ha, scale 0 to 100 (0 no effect, 100 complete control), read-out: Plant response rating, Johnsongrass)?
Answer: 75%

Question: What about the pest or weed control at 62 g/ha ([1]; 62 g ai/ha, scale 0 to 100 (0 no effect, 100 complete control), read-out: Plant response rating, Johnsongrass) of the same compound?
Answer: 85%

Question: And the pest or weed control at 16 g/ha [2, 6]?
Answer: 5%

Question: And the pest or weed control at 31 g/ha [2, 6]?
Answer: 10%

Question: What about the pest or weed control at 62 g/ha [2, 7] of the same compound?
Answer: 10%

Question: And the pest or weed control at 125 g/ha [2, 7]?
Answer: 15%

Question: And the pest or weed control at 125 g/ha ([2]; pre-emergence, Preemergence, read-out: Plant response rating (scale 0 to 100), Crabgrass, Large)?
Answer: 100%

Question: What about the pest or weed control at 16 g/ha [2, 8] of the same compound?
Answer: 100%

Question: What about the pest or weed control at 31 g/ha [2, 8] of the same compound?
Answer: 100%

Question: And the pest or weed control at 62 g/ha [2, 8]?
Answer: 100%

Question: What about the pest or weed control at 16 g/ha [3, 9] of the same compound?
Answer: 35%

Question: What about the pest or weed control at 31 g/ha [3, 9] of the same compound?
Answer: 50%

Question: And the pest or weed control at 62 g/ha [3, 10]?
Answer: 75%

Question: And the pest or weed control at 125 g/ha [3, 10]?
Answer: 85%

Question: What about the pest or weed control at 125 g/ha ([3]; pre-emergence, Preemergence, read-out: Plant response rating (scale 0 to 100), Velvetleaf) of the same compound?
Answer: 100%

Question: And the pest or weed control at 16 g/ha [3, 11]?
Answer: 90%

Question: What about the pest or weed control at 31 g/ha [3, 11] of the same compound?
Answer: 100%

Question: What about the pest or weed control at 62 g/ha [3, 11] of the same compound?
Answer: 100%

Question: What about the plant injury at 16 g/ha [4, 12] of the same compound?
Answer: 5%

Question: And the plant injury at 31 g/ha [4, 12]?
Answer: 25%

Question: And the plant injury at 62 g/ha [4, 13]?
Answer: 30%

Question: And the plant injury at 125 g/ha [4, 13]?
Answer: 35%

Question: And the plant injury at 125 g/ha ([4]; pre-emergence, Preemergence, read-out: Plant response rating (scale 0 to 100), Wheat)?
Answer: 60%

Question: What about the plant injury at 16 g/ha [4, 14] of the same compound?
Answer: 0%

Question: What about the plant injury at 31 g/ha [4, 14] of the same compound?
Answer: 0%

Question: And the plant injury at 62 g/ha [4, 14]?
Answer: 25%

Question: What about the plant injury at 16 g/ha [5, 15] of the same compound?
Answer: 95%

Question: And the plant injury at 31 g/ha [5, 15]?
Answer: 95%

Question: And the plant injury at 62 g/ha [5, 16]?
Answer: 100%

Question: And the plant injury at 125 g/ha [5, 16]?
Answer: 100%

Question: And the plant injury at 125 g/ha ([5]; pre-emergence, Preemergence, read-out: Plant response rating (scale 0 to 100), Oilseed Rape)?
Answer: 100%

Question: And the plant injury at 16 g/ha [5, 17]?
Answer: 100%

Question: What about the plant injury at 31 g/ha [5, 17] of the same compound?
Answer: 100%

Question: And the plant injury at 62 g/ha [5, 17]?
Answer: 100%
